A value given as a limit tells only on which side of the number the result lay.

The values below come from publication PMC6935813, “Assessment of the Aromatase Inhibitory Activity of Ma-Huang-Tang (MHT) and Its Active Compounds” (Evidence-based Complementary and Alternative Medicine : eCAM, 2019).

The target of test [1] is T1, aromatase (Homo sapiens, UniProt P11511).
T1 sequence (P11511 1-503): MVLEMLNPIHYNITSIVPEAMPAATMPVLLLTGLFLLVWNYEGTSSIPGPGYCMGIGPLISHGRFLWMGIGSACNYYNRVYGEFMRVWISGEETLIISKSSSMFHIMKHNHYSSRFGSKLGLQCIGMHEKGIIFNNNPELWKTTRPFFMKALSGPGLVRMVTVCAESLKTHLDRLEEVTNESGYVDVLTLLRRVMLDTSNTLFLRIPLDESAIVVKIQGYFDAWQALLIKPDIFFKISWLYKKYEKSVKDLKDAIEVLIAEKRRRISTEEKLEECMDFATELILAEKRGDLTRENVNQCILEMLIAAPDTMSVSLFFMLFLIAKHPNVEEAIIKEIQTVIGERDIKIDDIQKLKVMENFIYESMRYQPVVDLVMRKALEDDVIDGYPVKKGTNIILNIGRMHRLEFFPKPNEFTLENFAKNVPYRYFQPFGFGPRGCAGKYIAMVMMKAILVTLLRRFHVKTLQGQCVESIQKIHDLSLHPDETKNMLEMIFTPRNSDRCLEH
In words: Cell-free fluorescence-based aromatase inhibition assay (DBF hydrolysis). Type of test: biochemical. Further details: purchased Corning (Woburn, MA, USA). The conditions noted are these: DBF substrate.
Protocol: Supersomes human CYP19 was obtained from Corning (Woburn, MA, USA). Analytical-grade acetonitrile, methanol, and ultrapure water were purchased from J. T. Baker (Phillipsburg, NJ, USA). Trifluoroacetic acid was of analytical grade and was purchased from Sigma-Aldrich.
The inhibition of aromatase activity by MHT and each component was assessed by measuring the fluorescence intensity of fluorescein produced by the hydrolysis of DBF [20, 28]. […] A 100 μL mixture of aromatase and substrate (2 μM DBF, 40 pmol/mL aromatase, and 4 mg/mL albumin in 50 mM potassium phosphate, pH 7.4) was then added to the sample, and the resulting mixture was incubated for 30 min at 37°C in the dark. After the reaction, the sample was incubated with 150 μL of 2N NaOH for an additional 2 h at 37°C to remove impurities other than fluorescein. […] All experiments were performed three times at separate times.
The results are expressed as the means ± SEMs from multiple experiments. Paired Student's t-tests with Tukey's multiple comparison tests were performed to compare two groups using PRISM software (GraphPad, CA, USA). A p value <0.05 was considered to be statistically significant. Additionally, IC50 values were calculated by sigmoidal dose-response curve fitting (variable slope) using PRISM software.

Test [2] concerns the target T1, aromatase. In words: Cell-based aromatase assay: estrone ELISA in KGN cells given androstenedione. The conditions noted are these: estrone level by ELISA; maximum con. 5 mM; read-out: Aromatase inhibition IC50 in KGN cells.
Protocol: The human granulosa-like tumor cell line KGN was obtained from RIKEN BioResource Center (Ibaraki, JPN). The cells were grown in Dulbecco's modified Eagle's medium/Ham's F-12 nutrient mix (DMEM/F-12, Welgen, Daejeon, KOR) supplemented with 5% (v/v) fetal bovine serum (FBS) and 0.5% antibiotics (100 U/mL penicillin and 100 μg/mL streptomycin, Gibco BRL, NY, USA) in a humidified atmosphere of 5% CO2 at 37°C. Prior to treatment with MHT and its components in all the experiments, the cells were cultured for 24 h by switching to phenol-red free DMEM/H-12 medium (Welgen, Daejeon, KOR) with 5% (v/v) charcoal-stripped FBS (HyClone, Logan, UT, USA), and the samples were treated under the same conditions.
Cells (4 × 10^4 cells/mL) were placed on a 96-well tissue culture plate and incubated in DMEM/F-12 medium with 5% charcoal-stripped FBS (HyClone, Logan, UT, USA) overnight. After the addition of MHT or its components, the cells were incubated for 24 h. […] The estrone concentration in each of the samples was measured at 450 nm using a Synergy/HTX multimode reader (Bio-Tek Instruments Inc., VT, USA) with an estrone ELISA kit (Abnova, CA, USA), and the cell viability was measured using a CCK-8 assay (Dojindo Laboratories, Tokyo, JPN).
Additionally, IC50 values were calculated by sigmoidal dose-response curve fitting (variable slope) using PRISM software.

One may read the IC50 as the concentration at which inhibition is half-maximal. With `CN[C@@H](C)[C@H](O)c1ccccc1` [Ephedrine (1), ephedrine], the IC50 at aromatase [1] (maximum con. 10 mM) was > 10000 µM.

Turning to `CC1(C)[C@@H](O[C@H]2O[C@H](C(=O)O)[C@@H](O)[C@H](O)[C@H]2O[C@@H]2O[C@H](C(=O)O)[C@@H](O)[C@H](O)[C@H]2O)CC[C@]2(C)[C@H]3C(=O)C=C4[C@@H]5C[C@@](C)(C(=O)O)CC[C@]5(C)CC[C@@]4(C)[C@]3(C)CC[C@@H]12` [Glycyrrhizin (8), glycyrrhizin], at aromatase [1] (maximum con. 10 mM), the IC50 is > 10000 µM.

Take `O=c1ccc2ccccc2o1` [Coumarin (2), coumarin]: the IC50 against aromatase [1] (maximum con. 10 mM) was > 10000 µM.

For `O=C/C=C/c1ccccc1` [Cinnamaldehyde (4), cinnamaldehyde], on aromatase [1] (maximum con. 10 mM), the IC50 is > 10000 µM.

On to `O=C1CC(c2ccc(O)cc2)Oc2cc(O)ccc21` (centres unmarked) [Liquiritigenin (7), liquiritigenin], for which the IC50 worked out at 1410 µM at aromatase [2] and 1610 µM at aromatase [1] (maximum con. 10 mM).

At aromatase [1] (human CYP19 Supersomes), `O=C1C[C@@H](c2ccc(O[C@@H]3O[C@H](CO)[C@@H](O)[C@H](O)[C@H]3O)cc2)Oc2cc(O)ccc21` [Liquiritin (5), liquiritin] returned an IC50 of 530 µM.

With `O=C(O)/C=C/c1ccccc1` [Cinnamic acid (3), cinnamic acid], the IC50 at aromatase [1] (maximum con. 10 mM) is > 10000 µM.
